Patent US7803930B2, “Antisense modulation of apolipoprotein B-expression” (Isis Pharmaceuticals, Inc., priority 2002, dated 2010)
In the oligonucleotide strings, read from the 5' end, every base follows the letter of its sugar. An asterisk marks phosphorothioate; unmarked linkages are phosphodiester. Other units and linkages are bracketed, terminal groups are in braces. A string of capitals states the bases alone. e = 2'-O-(2-methoxyethyl) (MOE); [5mC] = 5-methylcytosine; d = 2'-deoxy (DNA)

System: human apolipoprotein B mRNA
Experiment: Inhibition of human apolipoprotein B mRNA levels in HepG2 cells, quantitative real-time PCR
Type: cell-based
Conditions: for % INHIB (inhibition of human apolipoprotein B mRNA levels): HepG2 cells treated with 150 nM of compound, quantitative real-time PCR; for % INHIB 50 nm / % INHIB 150 nm / % INHIB / % inhibition of apolipoprotein B mRNA levels: HepG2 cells; for % inhibition of apolipoprotein B mRNA levels: normalized to untreated control, average of two experiments
Summary of the method: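 HepG2 cells at 80% confluency were transfected with antisense oligonucleotide using 3.75 μg/mL Lipofectin in Opti-MEM for 4-7 h and harvested 16-24 h after treatment. Apolipoprotein B mRNA was measured by real-time RT-PCR and normalized to GAPDH or RiboGreen total RNA. Percent inhibition came from untreated-control standard curves.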

[1] = 50 nm oligonucleotide, variable deoxy gap position
[2] = 150 nm oligonucleotide, variable deoxy gap position
[3] = human apolipoprotein B mRNA, oligonucleotides targeting genomic sequence SEQ ID NO 334, averages from two experiments
[4] = Table 11 gene walk, 50 nM, averages from two experiments
[5] = Table 11 gene walk, 150 nM, averages from two experiments
[6] = Table 1, 150 nM, averages from two experiments
[7] = Table 17 variable gap, 50 nM, averages from three experiments
[8] = Table 17 variable gap, 150 nM, averages from three experiments

271045 (eG*eT*e[5mC]*eA*eA*d[5mC]*dA*dG*dT*dT*d[5mC]*d[5mC]*dT*dG*dG*eT*eA*e[5mC]*eA*eG; antisense) [compound 271045]
% INHIB (inhibition of human apolipoprotein B mRNA levels) (averages from two experiments): 19%

308660 (antisense TGGTAGCCTCAGTCTGCTTC; 2-10-8 2'-MOE gapmer, phosphorothioate, chemistry not fully specified) [compound 308660]
% INHIB 50 nm [1]: 72% | % INHIB 150 nm [2]: 92%

301176 (antisense eT*e[5mC]*eT*eG*eG*dA*dG*dG*d[5mC]*dT*d[5mC]*dA*dG*dA*dA*eA*e[5mC]*eA*eT*eG) [compound 301176]
% INHIB [3]: 57%

281609 (antisense e[5mC]*eG*eT*eT*eG*dG*dA*dG*dT*dA*dA*dG*d[5mC]*dG*d[5mC]*e[5mC]*eT*eG*eA*eG) [compound 281609]
% INHIB (inhibition of human apolipoprotein B mRNA levels) (averages from two experiments): 70%

271021 (antisense eG*eA*eG*eT*e[5mC]*dT*d[5mC]*dT*dG*dA*dG*dT*d[5mC]*dA*d[5mC]*e[5mC]*eT*e[5mC]*eA*e[5mC]) [compound 271021]
% INHIB (inhibition of human apolipoprotein B mRNA levels) (averages from two experiments): 38%

301180 (antisense eG*eA*eA*eT*eA*d[5mC]*dT*d[5mC]*dA*d[5mC]*d[5mC]*dT*dT*d[5mC]*dT*eG*e[5mC]*eT*eT*eG) [compound 301180]
% INHIB [3]: 6%

301216 (antisense e[5mC]*eT*eG*eG*eA*dG*dA*dG*dG*dA*d[5mC]*dT*dA*dA*dA*e[5mC]*eA*eG*eA*eG) [compound 301216]
% INHIB [3]: 49%

301015 (e[5mC]*eA*eA*e[5mC]*e[5mC]*dG*dA*dG*dA*dA*dG*dG*dG*d[5mC]*dA*e[5mC]*eT*e[5mC]*eA*eG; antisense) [compound 301015]
% INHIB (inhibition of human apolipoprotein B mRNA levels) (averages from two experiments): 53%

281629 (antisense eT*e[5mC]*e[5mC]*eA*eA*dG*dT*d[5mC]*d[5mC]*dT*dG*dG*d[5mC]*dT*dG*eT*eA*eT*eT*e[5mC]) [compound 281629]
% INHIB (inhibition of human apolipoprotein B mRNA levels) (averages from two experiments): 83%

271012 (antisense e[5mC]*e[5mC]*e[5mC]*eA*e[5mC]*dA*dG*dA*d[5mC]*dT*dT*dG*dA*dA*dG*eT*eG*eG*eA*eG) [compound 271012]
% INHIB (inhibition of human apolipoprotein B mRNA levels) (averages from two experiments): 55%

308615 (e[5mC]*eT*eT*eT*eT*dA*dG*dG*dT*dT*dA*d[5mC]*d[5mC]*dA*dG*e[5mC]*e[5mC]*eA*e[5mC]*eA; antisense) [compound 308615]
% INHIB 50 nm [4]: 45% | % INHIB 150 nm [5]: 85%

301223 (antisense eA*eA*eT*e[5mC]*eA*d[5mC]*dA*d[5mC]*dT*dA*dT*dG*dT*dG*dT*eT*e[5mC]*eT*eA*eG) [compound 301223]
% INHIB (Table 15, 150 nM, averages from two experiments): 26%

301191 (antisense eT*eT*e[5mC]*eT*e[5mC]*dT*dT*d[5mC]*dA*dT*d[5mC]*dT*dG*dA*dA*eA*eA*eT*eA*e[5mC]) [compound 301191]
% INHIB [3]: 21%

147801 (antisense e[5mC]*eA*eG*eA*e[5mC]*d[5mC]*d[5mC]*dG*dA*d[5mC]*dT*d[5mC]*dG*dT*dG*eG*eA*eA*eG*eA) [compound 147801]
% INHIB [6]: 38%

301129 (e[5mC]*eA*eT*eT*eT*dG*d[5mC]*dA*d[5mC]*dA*dA*dG*dT*dG*dT*eT*eT*eG*eT*eT; antisense) [compound 301129]
% INHIB [3]: 35%

301161 (eA*eT*eG*e[5mC]*eA*dT*dT*d[5mC]*d[5mC]*d[5mC]*dT*dG*dA*d[5mC]*dT*eA*eG*e[5mC]*eA*e[5mC]; antisense) [compound 301161]
% INHIB [3]: 34%

281616 (antisense eG*eT*e[5mC]*eT*eA*dG*dA*dA*d[5mC]*dA*d[5mC]*d[5mC]*d[5mC]*dA*dG*eG*eA*eG*eA*eG) [compound 281616]
% INHIB (inhibition of human apolipoprotein B mRNA levels) (averages from two experiments): 66%

281618 (antisense eA*eA*eG*e[5mC]*eA*dG*dA*d[5mC]*dA*dT*d[5mC]*dT*dG*dT*dG*eG*eT*e[5mC]*e[5mC]*e[5mC]) [compound 281618]
% INHIB (inhibition of human apolipoprotein B mRNA levels) (averages from two experiments): 90%

301087 (antisense eA*e[5mC]*eA*eA*eG*dG*dA*dG*dT*d[5mC]*d[5mC]*dT*dT*dG*dT*eG*e[5mC]*eA*eG*eA) [compound 301087]
% INHIB [3]: 40%

271028 (e[5mC]*eG*e[5mC]*eA*eG*dG*dT*d[5mC]*dA*dG*d[5mC]*d[5mC]*dT*dG*dA*e[5mC]*eT*eA*eG*eA; antisense) [compound 271028]
% INHIB (inhibition of human apolipoprotein B mRNA levels) (averages from two experiments): 98%

301098 (antisense eA*e[5mC]*eT*eA*eG*dA*dG*dG*dT*dA*dG*d[5mC]*d[5mC]*dA*dG*eA*eA*e[5mC]*eA*e[5mC]) [compound 301098]
% INHIB [3]: 34%

147786 (antisense e[5mC]*eT*eT*eG*eA*dA*dT*d[5mC]*dA*dG*d[5mC]*dA*dG*dT*d[5mC]*e[5mC]*e[5mC]*eA*eG*eG) [compound 147786]
% INHIB [6]: 34%

281640 (e[5mC]*eA*eG*eT*eG*d[5mC]*dA*dT*d[5mC]*dA*dA*dT*dG*dA*d[5mC]*eA*eG*eA*eT*eG; antisense) [compound 281640]
% INHIB (inhibition of human apolipoprotein B mRNA levels) (averages from two experiments): 87%

271047 (e[5mC]*e[5mC]*eT*e[5mC]*e[5mC]*d[5mC]*dT*d[5mC]*dA*dT*dG*dA*dA*d[5mC]*dA*eT*eA*eG*eT*eG; antisense) [compound 271047]
% INHIB (Table 12, 150 nM, averages from two experiments): 32%

281641 (e[5mC]*e[5mC]*eG*eA*eA*d[5mC]*d[5mC]*d[5mC]*dT*dT*dG*dA*d[5mC]*dA*dT*e[5mC]*eT*e[5mC]*e[5mC]*eT; antisense) [compound 281641]
% INHIB (inhibition of human apolipoprotein B mRNA levels) (averages from two experiments): 72%

308647 (antisense GCCTCAGTCTGCTTCGCACC; 4-10-6 2'-MOE gapmer, phosphorothioate, chemistry not fully specified) [compound 308647]
% INHIB 50 nm [1]: 53% | % INHIB 150 nm [2]: 86%

301128 (e[5mC]*e[5mC]*eT*e[5mC]*e[5mC]*dT*dG*dG*dT*d[5mC]*d[5mC]*dT*dG*d[5mC]*dA*eG*eT*e[5mC]*eA*eA; antisense) [compound 301128]
% INHIB [3]: 56%

301158 (e[5mC]*eT*eA*e[5mC]*e[5mC]*dT*d[5mC]*dA*dA*dA*dT*d[5mC]*dA*dA*dT*eA*eT*eG*eT*eT; antisense) [compound 301158]
% INHIB [3]: 28%

281586 (eT*eG*eG*eA*e[5mC]*dA*dG*dA*d[5mC]*d[5mC]*dA*dG*dG*d[5mC]*dT*eG*eA*e[5mC]*eA*eT; antisense) [compound 281586]
% INHIB (inhibition of human apolipoprotein B mRNA levels) (averages from two experiments): 80%

147827 (antisense e[5mC]*eT*eA*eA*eT*dG*dG*d[5mC]*d[5mC]*d[5mC]*d[5mC]*dT*dT*dG*dA*eT*eA*eA*eA*e[5mC]) [compound 147827]
% INHIB [6]: 13%

281594 (eG*eA*eT*eG*eG*d[5mC]*dT*dT*d[5mC]*dT*dG*d[5mC]*d[5mC]*dA*d[5mC]*eA*eT*eG*e[5mC]*eT; antisense) [compound 281594]
% INHIB (inhibition of human apolipoprotein B mRNA levels) (averages from two experiments): 74%

308642 (GCCTCAGTCTGCTTCGCGCC; 3-10-7 MOE gapmer, phosphorothioate, chemistry not fully specified) [compound 308642]
% inhibition of apolipoprotein B mRNA levels (12.5 nM oligonucleotide): 59% | % inhibition of apolipoprotein B mRNA levels (37 nM oligonucleotide): 84% | % inhibition of apolipoprotein B mRNA levels (75 nM oligonucleotide): 91% | % inhibition of apolipoprotein B mRNA levels (150 nM oligonucleotide): 97% | % inhibition of apolipoprotein B mRNA levels (300 nM oligonucleotide): 98% | % INHIB 50 nm [7]: 85% | % INHIB 150 nm [8]: 95%

147810 (antisense eA*eT*eT*eT*e[5mC]*dA*dG*d[5mC]*dA*dT*dA*dT*dG*dA*dG*e[5mC]*e[5mC]*e[5mC]*eA*eT) [compound 147810]
% INHIB [6]: 0%

301181 (antisense eA*eT*e[5mC]*eT*e[5mC]*dT*d[5mC]*dT*dG*dT*d[5mC]*d[5mC]*dT*d[5mC]*dA*eT*e[5mC]*eT*eT*e[5mC]) [compound 301181]
% INHIB [3]: 28%

271033 (e[5mC]*eA*eG*eT*eA*d[5mC]*dT*dG*dT*dT*dA*dT*dG*dA*d[5mC]*eT*eA*e[5mC]*e[5mC]*e[5mC]; antisense) [compound 271033]
% INHIB (inhibition of human apolipoprotein B mRNA levels) (averages from two experiments): 34%

308624 (eT*e[5mC]*eG*e[5mC]*eG*d[5mC]*d[5mC]*dT*dT*d[5mC]*dT*dG*d[5mC]*dT*dT*eG*eA*eG*eT*eT; antisense) [compound 308624]
% INHIB 50 nm (Table 13 gene walk, 50 nM, averages from two experiments): 69% | % INHIB 150 nm (Table 13 gene walk, 150 nM, averages from two experiments): 89%

271036 (eA*eA*eG*eA*eG*dG*d[5mC]*d[5mC]*d[5mC]*dT*d[5mC]*dT*dA*dG*d[5mC]*eT*eG*eT*eA*eA; antisense) [compound 271036]
% INHIB (inhibition of human apolipoprotein B mRNA levels) (averages from two experiments): 95%

308657 (antisense GCCTCAGTCTGCTTCGCGCC; 9-10-1 2'-MOE gapmer, phosphorothioate, chemistry not fully specified) [compound 308657]
% INHIB 50 nm [7]: 61% | % INHIB 150 nm [8]: 78%

281593 (eT*eA*e[5mC]*eT*eG*dA*d[5mC]*dA*dG*dG*dA*d[5mC]*dT*dG*dG*e[5mC]*eT*eG*e[5mC]*eT; antisense) [compound 281593]
% INHIB (inhibition of human apolipoprotein B mRNA levels) (averages from two experiments): 93%

308618 (eA*eG*eG*e[5mC]*eT*d[5mC]*d[5mC]*dT*dT*dT*dT*dA*dG*dG*dT*eT*eA*e[5mC]*e[5mC]*eA; antisense) [compound 308618]
% INHIB 50 nm [4]: 61% | % INHIB 150 nm [5]: 77%
